Reference: ChEMBL document CHEMBL1201862, “PubChem BioAssay data set” (2004)
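96-well plates; 48 h exposure; 5 concentrations. Endpoints by linear interpolation between flanking doses. Not reached: highest tested concentration assigned. GI50: concentration for 50% inhibition of growth.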 Activity calls are given as the source filed them. Cut-off read from the data, not from the text of the source: active = GI50 up to about 1.1 µM and inactive = higher.

Legend:
Assay in all cases: inhibition of tumour cell growth, NCI panel, 48 h
[1] = test system: 786-0
[2] = test system: COLO 205
[3] = test system: EKVX
[4] = test system: HCT-116
[5] = test system: HL-60
[6] = test system: KM12
[7] = test system: LOX IMVI
[8] = test system: M14
[9] = test system: M19-MEL
[10] = test system: NCI-H23
[11] = test system: NCI-H522
[12] = test system: OVCAR-4
[13] = test system: OVCAR-8
[14] = test system: SNB-19
[15] = test system: U-251
[16] = test system: UO-31

## O=c1c2c(-c3ccccc3)c3ccccc3nc2cnn1-c1ccccc1
[1]
  GI50: > 100 µM (inactive)
[2]
  GI50: 67 µM (inactive)
[3]
  GI50: > 100 µM (inactive)
[4]
  GI50: > 100 µM (inactive)
[5]
  GI50: 29.4 µM (inactive)
[6]
  GI50: 90.6 µM (inactive)
[7]
  GI50: > 100 µM (inactive)
[8]
  GI50: > 100 µM (inactive)
[9]
  GI50: > 100 µM (inactive)
[10]
  GI50: > 100 µM (inactive)
[11]
  GI50: 26.7 µM (inactive)
[12]
  GI50: > 100 µM (inactive)
[13]
  GI50: > 100 µM (inactive)
[14]
  GI50: > 100 µM (inactive)
[15]
  GI50: > 100 µM (inactive)
[16]
  GI50: > 100 µM (inactive)

## COc1ccccc1/C=C1\CCC(CNc2ccc(Cl)cc2)C1=O (stereo not drawn)
[1]
  GI50: 10.5 µM (inactive)
[2]
  GI50: 2.39 µM (inactive)
[3]
  GI50: 5.15 µM (inactive)
[4]
  GI50: 4.38 µM (inactive)
[5]
  GI50: 2.18 µM (inactive)
[6]
  GI50: 1.1 µM (active)
[7]
  GI50: 0.254 µM (active)
[8]
  GI50: 0.242 µM (active)
[9]
  GI50: 1.61 µM (inactive)
[10]
  GI50: 5.14 µM (inactive)
[11]
  GI50: 1.57 µM (inactive)
[12]
  GI50: 14.7 µM (inactive)
[13]
  GI50: 3.46 µM (inactive)
[14]
  GI50: 11.8 µM (inactive)
[15]
  GI50: 9.75 µM (inactive)
[16]
  GI50: 3.18 µM (inactive)

## CC(=O)O[C@H]1[C@H](O[C@H]2CC[C@]34C[C@]35CC[C@]3(C)[C@@H]([C@@]6(C)CC[C@@H](C(C)(C)O)O6)[C@@H](O)C[C@@]3(C)[C@@H]5C[C@H](O[C@@H]3O[C@H](CO)[C@@H](O)[C@H](O)[C@H]3O)[C@H]4C2(C)C)OC[C@@H](O)[C@@H]1O
[1]
  GI50: 42.6 µM (inactive)
[2]
  GI50: 46.8 µM (inactive)
[3]
  GI50: > 100 µM (inactive)
[4]
  GI50: > 100 µM (inactive)
[5]
  GI50: 35.6 µM (inactive)
[6]
  GI50: > 100 µM (inactive)
[7]
  GI50: 44 µM (inactive)
[8]
  GI50: 54.6 µM (inactive)
[9]
  GI50: 78.5 µM (inactive)
[10]
  GI50: > 100 µM (inactive)
[11]
  GI50: > 100 µM (inactive)
[12]
  GI50: > 100 µM (inactive)
[13]
  GI50: > 100 µM (inactive)
[14]
  GI50: > 100 µM (inactive)
[15]
  GI50: 55 µM (inactive)
[16]
  GI50: > 100 µM (inactive)

## O=C1c2ccccc2C(=O)N1CCn1ccc(NC(c2ccccc2)(c2ccccc2)c2ccccc2)nc1=O
[1]
  GI50: 32 µM (inactive)
[2]
  GI50: 17.6 µM (inactive)
[3]
  GI50: 49.1 µM (inactive)
[4]
  GI50: 17.5 µM (inactive)
[5]
  GI50: 19 µM (inactive)
[6]
  GI50: 20.8 µM (inactive)
[7]
  GI50: 17.1 µM (inactive)
[8]
  GI50: 22 µM (inactive)
[9]
  GI50: 16.8 µM (inactive)
[10]
  GI50: 24 µM (inactive)
[11]
  GI50: 20.2 µM (inactive)
[12]
  GI50: 25.5 µM (inactive)
[13]
  GI50: 36.7 µM (inactive)
[14]
  GI50: 25.2 µM (inactive)
[15]
  GI50: 16.4 µM (inactive)
[16]
  GI50: 21.2 µM (inactive)

## O=C1CCC2(c3ccccc3)Nc3ncccc3N12 (stereo not drawn)
[1]
  GI50: > 100 µM (inactive)
[2]
  GI50: > 100 µM (inactive)
[3]
  GI50: > 100 µM (inactive)
[5]
  GI50: > 100 µM (inactive)
[6]
  GI50: > 100 µM (inactive)
[7]
  GI50: > 100 µM (inactive)
[8]
  GI50: > 100 µM (inactive)
[9]
  GI50: > 100 µM (inactive)
[10]
  GI50: > 100 µM (inactive)
[11]
  GI50: > 100 µM (inactive)
[12]
  GI50: > 100 µM (inactive)
[13]
  GI50: > 100 µM (inactive)
[15]
  GI50: > 100 µM (inactive)
[16]
  GI50: > 100 µM (inactive)

## CC(=O)Oc1ccccc1 [ACETIC ACID PHENYL ESTER]
[1]
  GI50: > 100 µM (inactive)
[3]
  GI50: > 100 µM (inactive)
[4]
  GI50: > 100 µM (inactive)
[5]
  GI50: > 100 µM (inactive)
[6]
  GI50: > 100 µM (inactive)
[7]
  GI50: > 100 µM (inactive)
[8]
  GI50: > 100 µM (inactive)
[9]
  GI50: > 100 µM (inactive)
[10]
  GI50: > 100 µM (inactive)
[11]
  GI50: > 100 µM (inactive)
[12]
  GI50: > 100 µM (inactive)
[13]
  GI50: > 100 µM (inactive)
[14]
  GI50: > 100 µM (inactive)
[15]
  GI50: > 100 µM (inactive)
[16]
  GI50: > 100 µM (inactive)

## CCCC1C(=O)C(CC)Cc2c(OC)ccc(OC)c21 (stereo not drawn)
[1]
  GI50: > 100 µM (inactive)
[2]
  GI50: > 100 µM (inactive)
[3]
  GI50: > 100 µM (inactive)
[5]
  GI50: > 100 µM (inactive)
[6]
  GI50: > 100 µM (inactive)
[7]
  GI50: > 100 µM (inactive)
[8]
  GI50: > 100 µM (inactive)
[9]
  GI50: > 100 µM (inactive)
[11]
  GI50: > 100 µM (inactive)
[12]
  GI50: > 100 µM (inactive)
[13]
  GI50: > 100 µM (inactive)
[14]
  GI50: > 100 µM (inactive)
[15]
  GI50: > 100 µM (inactive)
[16]
  GI50: > 100 µM (inactive)

## CCN(CC)CC(=O)N1CCc2c([nH]c3ccccc23)C1c1cccnc1 (stereo not drawn)
[1]
  GI50: > 100 µM (inactive)
[3]
  GI50: > 100 µM (inactive)
[4]
  GI50: > 100 µM (inactive)
[5]
  GI50: > 100 µM (inactive)
[6]
  GI50: > 100 µM (inactive)
[7]
  GI50: > 100 µM (inactive)
[8]
  GI50: > 100 µM (inactive)
[9]
  GI50: > 100 µM (inactive)
[10]
  GI50: > 100 µM (inactive)
[11]
  GI50: > 100 µM (inactive)
[12]
  GI50: > 100 µM (inactive)
[13]
  GI50: > 100 µM (inactive)
[14]
  GI50: > 100 µM (inactive)
[15]
  GI50: > 100 µM (inactive)
[16]
  GI50: 26.9 µM (inactive)

## COC(=O)C(CC1=C(O)Nc2ccccc2N1)/C(=N/NC(N)=O)C(=O)Nc1ccccc1C (stereo not drawn)
[1]
  GI50: > 100 µM (inactive)
[2]
  GI50: 28.5 µM (inactive)
[3]
  GI50: > 100 µM (inactive)
[4]
  GI50: 18.2 µM (inactive)
[5]
  GI50: > 100 µM (inactive)
[6]
  GI50: > 100 µM (inactive)
[7]
  GI50: 17.8 µM (inactive)
[8]
  GI50: > 100 µM (inactive)
[9]
  GI50: 60.1 µM (inactive)
[10]
  GI50: > 100 µM (inactive)
[11]
  GI50: 16.8 µM (inactive)
[12]
  GI50: > 100 µM (inactive)
[13]
  GI50: > 100 µM (inactive)
[14]
  GI50: > 100 µM (inactive)
[15]
  GI50: > 100 µM (inactive)
[16]
  GI50: > 100 µM (inactive)
